The text below walks through data of patent publication US8461152B2, “Arylcyclohexylethers of dihydrotetraazabenzoazulenes” (Hoffmann-La Roche Inc., priority 2008, dated 2013).

Structures can show the parent of a compound that is named as a salt.

For the test, the target named is T1, human V1a receptor (Homo sapiens, UniProt P37288).
T1 construct: expressed in transfected cells; host or cells: HEK293 cells, transiently transfected; membrane preparation
T1 sequence (P37288 whole entry): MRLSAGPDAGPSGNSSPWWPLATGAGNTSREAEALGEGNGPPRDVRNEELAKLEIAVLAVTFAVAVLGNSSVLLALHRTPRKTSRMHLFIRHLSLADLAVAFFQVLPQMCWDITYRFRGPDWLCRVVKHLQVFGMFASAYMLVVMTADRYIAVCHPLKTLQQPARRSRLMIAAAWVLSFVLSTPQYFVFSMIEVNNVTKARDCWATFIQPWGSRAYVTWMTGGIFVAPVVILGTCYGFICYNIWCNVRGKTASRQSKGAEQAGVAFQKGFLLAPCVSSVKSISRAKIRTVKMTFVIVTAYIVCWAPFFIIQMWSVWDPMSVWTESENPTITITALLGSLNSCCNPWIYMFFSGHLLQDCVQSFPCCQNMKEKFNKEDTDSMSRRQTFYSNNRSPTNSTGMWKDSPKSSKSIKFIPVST
As to the kind of experiment: human V1a receptor binding studies (SPA, 3H-Vasopressin, membranes of transfected HEK293 cells). The conditions noted are these: displacement of 3H-Vasopressin, HEK293 cell membranes, 1 h at room temperature; Ki by Cheng-Prussoff equation; read-out: pKi (hV1a) (converted). On the procedure:
The human V1a receptor was cloned by RT-PCR from total human liver RNA. The coding sequence was subcloned in an expression vector after sequencing to confirm the identity of the amplified sequence. […] Cell membranes were prepared from HEK293 cells transiently transfected with the expression vector and grown in 20 liter fermenters with the following protocol.
50 g of cells are resuspended in 30 ml freshly prepared ice cold Lysis buffer (50 mM HEPES, 1 mM EDTA, 10 mM magnesium dichloride adjusted to pH=7.4+complete cocktail of protease inhibitor (Roche Diagnostics)). Homogenized with Polytron for 1 min and sonicated on ice for 2×2 minutes at 80% intensity (Vibracell sonicator). The preparation is centrifuged 20 min at 500 g at 4° C., the pellet is discarded and the supernatant centrifuged 1 hour at 43'000 g at 4° C. (19'000 rpm). The pellet is resuspended in 12.5 ml Lysis buffer+12.5 ml Sucrose 20% and homogenized using a Polytron for 1-2 min. The protein concentration is determined by the Bradford method and aliquots are stored at −80° C. until use. For binding studies 60 mg Yttrium silicate SPA beads (Amersham) are mixed with an aliquot of membrane in binding buffer (50 mM Tris, 120 mM sodium chloride, 5 mM potassium chloride, 2 mM Calcium dichloride, 10 mM magnesium dichloride) for 15 minutes with mixing. 50 μl of bead/membrane mixture is then added to each well of a 96 well plate, followed by 50 μl of 4 nM 3H-Vasopressin (American Radiolabeled Chemicals). For total binding measurement 100 μl of binding buffer are added to the respective wells, for non-specific binding 100 μl of 8.4 mM cold vasopressin and for compound testing 100 μl of a serial dilution of each compound in 2% dimethyl sulfoxide. The plate is incubated 1 h at room temperature, centrifuged […] at 1000 g and counted on a Packard Top-Count. Non-specific binding counts are subtracted from each well and data is normalized to the maximum specific binding set at 100%. To calculate an IC 50 the curve is fitted using a non-linear regression model (XLfit) and the Ki is calculated using the Cheng-Prussoff equation.
With `CN1Cc2cc(Cl)ccc2-n2c(nnc2[C@H]2CC[C@H](Oc3ccccn3)CC2)C1` [Example 69, trans-8-Chloro-5-methyl-1-[4-(pyridin-2-yloxy)-cyclohexyl]-5,6-dihydro-4H-2,3,5,10b-tetraaza-benzoazulene], the Ki is 1.1 nM.
`CN1Cc2cc(Cl)ccc2-n2c(nnc2[C@H]2CC[C@H](Oc3cccc(Cl)c3)CC2)C1` [Example 28, trans-8-Chloro-1-[4-(3-chloro-phenoxy)-cyclohexyl]-5-methyl-5,6-dihydro-4H-2,3,5,10b-tetraaza-benzoazulene]: the Ki is 3.09 nM.
Take `CN1Cc2cc(Cl)ccc2-n2c(nnc2[C@H]2CC[C@H](Oc3cccnc3)CC2)C1` [Example 63, trans-8-Chloro-5-methyl-1-[4-(pyridin-3-yloxy)-cyclohexyl]-5,6-dihydro-4H-2,3,5,10b-tetraaza-benzoazulene]: the Ki was 4.57 nM.
The figure for `CN1Cc2cc(Cl)ccc2-n2c(nnc2[C@H]2CC[C@H](Oc3ccccc3C#N)CC2)C1` [Example 48, trans-2-[4-(8-Chloro-5-methyl-5,6-dihydro-4H-2,3,5,10b-tetraaza-benzoazulen-1-yl)-cyclohexyloxy]-benzonitrile] is 0.794 nM; for `Fc1ccccc1O[C@H]1CC[C@H](c2nnc3n2-c2ccc(Cl)cc2CNC3)CC1` [Example 44, trans-8-Chloro-1-[4-(2-fluoro-phenoxy)-cyclohexyl]-5,6-dihydro-4H-2,3,5,10b-tetraaza-benzo[e]azulene hydrochloride] it is 3.39 nM.
The figure for `CC(C)(C)OC(=O)N1Cc2cc(Cl)ccc2-n2c(nnc2[C@H]2CC[C@@H](Oc3ncccn3)CC2)C1` [Example 80, cis-8-Chloro-1-[4-(pyrimidin-2-yloxy)-cyclohexyl]-4H,6H-2,3,5,10b-tetraaza-benzo[e]azulene-5-carboxylic acid tert-butyl ester] is 12.6 nM; for `CC(C)(C)OC(=O)N1Cc2cc(Cl)ccc2-n2c(nnc2[C@H]2CC[C@H](Oc3cc(F)cc(F)c3)CC2)C1` [Example 52, trans-8-Chloro-1-[4-(3,5-difluoro-phenoxy)-cyclohexyl]-4H,6H-2,3,5,10b-tetraaza-benzoazulene-5-carboxylic acid tert-butyl ester] it is 3.47 nM; for `CN1Cc2cc(Cl)ccc2-n2c(nnc2[C@H]2CC[C@H](Oc3ccc4ccccc4c3)CC2)C1` [Example 57, trans-8-Chloro-5-methyl-1-[4-(naphthalen-2-yloxy)-cyclohexyl]-5,6-dihydro-4H-2,3,5,10b-tetraaza-benzoazulene] it is 5.75 nM.
The figure for `CC(C)(C)OC(=O)N1Cc2cc(Cl)ccc2-n2c(nnc2[C@H]2CC[C@H](Oc3cccnc3)CC2)C1` [Example 61, trans-8-Chloro-1-[4-(pyridin-3-yloxy)-cyclohexyl]-4H,6H-2,3,5,10b-tetraaza-benzoazulene-5-carboxylic acid tert-butyl ester] is 1.51 nM; for `CC(C)(C)OC(=O)N1Cc2cc(Cl)ccc2-n2c(nnc2[C@H]2CC[C@H](Oc3ccncn3)CC2)C1` [Example 86, trans-8-Chloro-1-[4-(pyrimidin-4-yloxy)-cyclohexyl]-4H,6H-2,3,5,10b-tetraaza-benzo[e]azulene-5-carboxylic acid tert-butyl ester] it is 3.47 nM; for `Clc1ccc2c(c1)CNCc1nnc([C@H]3CC[C@@H](Oc4ccccn4)CC3)n1-2` [Example 110, cis-8-Chloro-1-[4-(pyridin-2-yloxy)-cyclohexyl]-5,6-dihydro-4H-2,3,5,10b-tetraaza-benzo[e]azulene] it is 51.3 nM.
Turning to `CC(C)(C)OC(=O)N1Cc2cc(Cl)ccc2-n2c(nnc2[C@H]2CC[C@H](Oc3ncccn3)CC2)C1` [Example 79, trans-8-Chloro-1-[4-(pyrimidin-2-yloxy)-cyclohexyl]-4H,6H-2,3,5,10b-tetraaza-benzo[e]azulene-5-carboxylic acid tert-butyl ester], the Ki was 2.57 nM.
